Assay results from US11311530B2, “Lewy body disease therapeutic agent containing pyrazoloquinoline derivative” (Eisai R&D Management Co., Ltd., priority 2017, dated 2022).

Legend:
[1] = system: rat with scopolamine-induced cognitive impairment; assay: Novel object recognition test using rats with scopolamine-induced cognitive impairment; type: in vivo; settings: for percentage of exploration of the novel object during T2: scopolamine 0.7 mg/kg s.c., male Long Evans rats, mean ± standard error
Experimental: A novel object recognition test using rats with scopolamine-induced cognitive impairment was performed to confirm the effect of improving cognitive impairment induced by an acetylcholine nerve disorder. The novel object recognition test is a test system for assessing cognitive function based on the spontaneous behavioral characteristic of a rodent in which the rodent spends more time exploring a novel object than a familiar object. The test method described in Ennacer etc. Behavioural Brain Research, 31 (1988) pp. 47-51 was partially modified and performed.
Six-week-old male Long Evans rats (the Institute for Animal Reproduction) were subjected to the test. For two days before the test, a process for habituating the rat to the experimental procedure was performed once daily. In the habituation process, administration of a vehicle to the rat was performed, and subsequently, the rat was placed in an empty test apparatus (40 cm×30 cm×H 45 cm) and allowed to explore for 3 minutes, was transferred into a waiting chamber (13 cm×30 cm×H 45 cm) for about 1 minute, and then was returned into the empty test apparatus again and allowed to stay for 5 minutes.
On the day of the test, an acquisition trial (T1) was performed. Compound (I) was administered orally by using a solution of 0.5% methylcellulose in 0.01 M hydrochloric acid as a vehicle 2 hours before T1. Scopolamine (Wako Pure Chemical Industries, Ltd.) was administered subcutaneously by using a saline as a vehicle at a dose of 0.7 mg/kg 30 minutes before T1. […] The behaviors of the rat during T1 and T2 were recorded by a digital video camera and the total exploration time for each object was measured manually using a stopwatch. […]
In the novel object recognition test, a percentage of exploration of the novel object during T2 is considered as an amnesia index that reflects discrimination between the familiar object and the novel object. The percentage of exploration of the novel object was calculated in accordance with the following equation. […]
The results were expressed as mean±standard error. […]

[2] = biological target: phosphodiesterase 9 (PDE9) (Homo sapiens, UniProt O76083); settings: from Patent Literature 1; cited from earlier work
phosphodiesterase 9 (PDE9), sequence (O76083 whole entry): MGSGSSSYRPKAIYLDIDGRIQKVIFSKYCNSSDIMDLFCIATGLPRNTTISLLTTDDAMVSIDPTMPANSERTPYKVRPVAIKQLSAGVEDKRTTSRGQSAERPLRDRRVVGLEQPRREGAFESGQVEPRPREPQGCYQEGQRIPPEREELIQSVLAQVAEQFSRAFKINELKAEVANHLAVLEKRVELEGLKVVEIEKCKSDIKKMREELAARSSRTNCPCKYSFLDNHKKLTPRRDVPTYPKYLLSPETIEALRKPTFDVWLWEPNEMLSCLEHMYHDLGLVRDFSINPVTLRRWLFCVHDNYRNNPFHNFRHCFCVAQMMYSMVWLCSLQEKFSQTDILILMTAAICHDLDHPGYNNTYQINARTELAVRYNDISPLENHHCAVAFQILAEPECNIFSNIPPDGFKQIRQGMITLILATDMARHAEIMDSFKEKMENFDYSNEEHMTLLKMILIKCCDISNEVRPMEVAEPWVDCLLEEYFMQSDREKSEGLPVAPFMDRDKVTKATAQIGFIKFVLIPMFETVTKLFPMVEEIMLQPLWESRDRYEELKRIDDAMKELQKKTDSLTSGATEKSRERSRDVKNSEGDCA

Q: What does the source list for COc1ncc(C)c(-c2ccc3c(c2)[nH]c(=O)c2cnn([C@H]4CCOC4)c23)c1C [Compound (I), (S)-7-(2-methoxy-3,5-dimethylpyridin-4-yl)-1-(tetrahydrofuran-3-yl)-1H-pyrazolo[4,3-c]quinolin-4(5H)-one]?
A: percentage of exploration of the novel object during T2 ([1]; 3.3 mg/kg orally 2 hours before T1): 68.5 ± 2.0 %; percentage of exploration of the novel object during T2 ([1]; 10 mg/kg orally 2 hours before T1): 68.5 ± 1.6 %; effect of improving the percentage of exploration of the novel object ([1]; at 3.3 mg/kg and 10 mg/kg, versus disease control group, Dunnett's test, p<0.05): significant effect of improving the percentage of exploration of the novel object; PDE9 inhibitory action [2]: exhibits a PDE9 inhibitory action
